Assay results as given in PubChem BioAssay (NCI).
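All cell lines were grown in 96-well plates and treated with compound for 48 hours. Abbreviation: GI50, concentration required for 50% inhibition of growth. At the TGI there is no net growth.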

Experiments:
Experiment in all cases: growth of human tumour cells (NCI), 48 h
MDA-MB-231 breast = test system: MDA-MB-231 breast
786-0 renal = test system: 786-0 renal
NCI-H522 lung = test system: NCI-H522 lung
PC-3 prostate = test system: PC-3 prostate
SN12C renal = test system: SN12C renal
COLO 205 colon = test system: COLO 205 colon
SW-620 colon = test system: SW-620 colon
NCI-H23 lung = test system: NCI-H23 lung
HOP-62 NSCLC = test system: HOP-62 NSCLC
BT-549 breast = test system: BT-549 breast

| Compound | TGI (MDA-MB-231 breast) [µM] | TGI (786-0 renal) [µM] | TGI (NCI-H522 lung) [µM] | TGI (PC-3 prostate) [µM] | TGI (SN12C renal) [µM] | TGI (COLO 205 colon) [µM] | TGI (SW-620 colon) [µM] | TGI (NCI-H23 lung) [µM] | TGI (HOP-62 NSCLC) [µM] | TGI (BT-549 breast) [µM] | GI50 (MDA-MB-231 breast) [µM] | GI50 (786-0 renal) [µM] | GI50 (NCI-H522 lung) [µM] | GI50 (PC-3 prostate) [µM] | GI50 (SN12C renal) [µM] | GI50 (COLO 205 colon) [µM] | GI50 (SW-620 colon) [µM] | GI50 (NCI-H23 lung) [µM] | GI50 (HOP-62 NSCLC) [µM] | GI50 (BT-549 breast) [µM] |
| --- | --- | --- | --- | --- | --- | --- | --- | --- | --- | --- | --- | --- | --- | --- | --- | --- | --- | --- | --- | --- |
| CC(=O)OC1CCC2(C)C(=CCC3C4CCC5(OC6CC(C)CN(C(C)=O)C6C5C)C(C)=C4C(=O)C32)C1 (stereo not given) | 33.3 | 72.6 | 29.4 | 28.6 | 46.5 | 32.4 | > 100 | 29.6 | 46.4 | 28.6 | – | – | – | – | – | – | – | – | – | – |
| C(=C\c1nccc2c1[nH]c1ccccc12)/c1ccccc1 | 8.02 | 10.7 | 7.94 | > 100 | 76.7 | 3.62 | 18.1 | > 100 | 22.3 | 10.2 | 1.76 | 3.49 | 2.38 | 2.82 | 3.83 | 1.56 | 2.39 | 3.78 | 2.97 | 2.22 |
| O=C(O)c1cc(Cc2ccc(O)c(C(=O)O)c2)ccc1O (tested in a mixture with another compound) | 12.2 | 25.2 | 33.8 | 19.2 | 20.6 | 3.41 | 23.5 | 20 | 26.6 | 16.6 | 3.25 | 9.64 | 12.5 | 3.58 | 6.84 | 1.57 | 3.55 | 5.31 | 10.9 | 3.13 |
| Cc1ccc2c(c1)O/C(=C\c1ccc([N+](=O)[O-])o1)C2=O | 3.27 | 4.72 | 1.86 | 5.15 | 4.96 | 3.28 | 1.27 | 4.82 | 6.48 | 3.47 | 1.36 | 2.15 | 0.531 | 1.75 | 1.92 | 1.43 | 0.296 | 1.94 | 2.27 | 1.82 |
| O=C(Nc1ccc(Cl)cc1)c1cc(S(=O)(=O)Nc2nnc(-c3ccccc3)c(-c3ccccc3)n2)c(SCc2ccccc2)cc1Cl | > 56.2 | > 57.8 | > 71.2 | > 100 | 38.4 | > 60.3 | > 100 | 53.7 | > 58.5 | > 70.5 | 19.3 | 23.6 | 43.9 | 39.8 | 16.4 | 23.8 | 38.1 | 24.6 | 26.6 | 34.9 |
| C1=C(c2ccccc2)C(c2ccc(OCCN3CCCCC3)cc2)Oc2ccccc21 (stereo not given) | 3.51 | 2.83 | 3.37 | 3.25 | 3.73 | 3.15 | 3.62 | 6.3 | 3.29 | 3.07 | 1.86 | 1.5 | 1.59 | 1.79 | 1.92 | 1.62 | 1.83 | 2.29 | 1.67 | 1.61 |
| COC(=O)C1(C2CC/C(C)=C/CC/C(C)=C/CC[C@@]3(C)O[C@@H]3C2)CC1 (stereo not given in full) | > 74.7 | > 70 | > 100 | > 100 | > 100 | > 100 | > 100 | > 100 | 65.8 | > 100 | > 48.6 | 35.5 | 50.4 | 36.5 | > 100 | > 56.5 | 40 | 46.1 | 25.8 | > 100 |
| COc1ccc(-c2nnc(N3CCN(C(=O)CN4CCN(c5ccc(Cl)cc5)CC4)CC3)nc2-c2ccc(OC)cc2)cc1 | > 100 | 69.8 | > 100 | > 100 | > 100 | > 100 | > 100 | > 100 | 81.1 | 82.8 | 45.9 | 17.5 | 22.4 | 9.58 | 17.8 | 16.9 | 57.9 | 24.4 | 26.2 | 8.88 |
| C/C1=C\C/C=C(\C)[C@H]2CC(CC/C(C)=C/CC1)[C@](C)(C=O)O2 | > 100 | > 100 | > 100 | > 100 | > 100 | > 100 | > 100 | > 100 | > 100 | > 100 | > 100 | > 100 | 59.6 | 88.2 | > 100 | > 100 | 51.1 | > 100 | 40.6 | 20.9 |
| CC(C)(C)OC(=O)CN1CCc2c(sc3ncnc(N/N=C/c4cccc5ccccc45)c23)C1 | 9.21 | 16.4 | 12.4 | > 33.3 | 9.04 | 3.93 | 7.96 | 17.4 | 11.4 | > 33.3 | 2.64 | 4.11 | 2.16 | 2.04 | 3.65 | 1.07 | 1.8 | 4.19 | 2.31 | 6.03 |
| COc1ccc2c(c1)cn1c3ccc(O)cc3[nH]c(=O)c21 | 2.47 | 5.49 | 1.24 | 16.4 | 17.9 | 2.83 | 2.55 | 15.5 | 17.9 | 19.2 | 0.469 | 0.334 | 0.0442 | 0.244 | 0.403 | 0.409 | 0.043 | 0.292 | 0.258 | 2.73 |
| Cc1cccc2c1O/C(=C\c1ccc([N+](=O)[O-])o1)C2=O | 3.61 | 4.27 | 0.668 | 4.11 | 4.25 | 2.14 | 0.864 | 3.41 | 4.44 | 2.63 | 1.21 | 1.8 | 0.222 | 1.34 | 1.57 | 0.66 | 0.223 | 1.35 | 1.64 | 1.28 |
| COc1ccc(/C=C(/C)[N+](=O)[O-])cc1 | 9.89 | 2.51 | 1.81 | 5.04 | 4.62 | 4.3 | > 20.6 | 4.35 | 3.61 | 6.91 | – | – | – | – | – | – | – | – | – | – |
